Drawing on US20230092890A1, “1, 3, 4-Oxadiazole derivative compounds as histone deacetylase 6 inhibitor, and the pharmaceutical composition comprising the same” (Chong Kun Dang Pharmaceutical Corp., priority 2019, published 2023), this text covers IC50 for 17 molecules.

The target of one assay is T1, HDAC6 human recombinant (Homo sapiens, UniProt Q9UBN7).
T1 construct: purchased Calbiochem 382180
T1 sequence (Q9UBN7 1-1215): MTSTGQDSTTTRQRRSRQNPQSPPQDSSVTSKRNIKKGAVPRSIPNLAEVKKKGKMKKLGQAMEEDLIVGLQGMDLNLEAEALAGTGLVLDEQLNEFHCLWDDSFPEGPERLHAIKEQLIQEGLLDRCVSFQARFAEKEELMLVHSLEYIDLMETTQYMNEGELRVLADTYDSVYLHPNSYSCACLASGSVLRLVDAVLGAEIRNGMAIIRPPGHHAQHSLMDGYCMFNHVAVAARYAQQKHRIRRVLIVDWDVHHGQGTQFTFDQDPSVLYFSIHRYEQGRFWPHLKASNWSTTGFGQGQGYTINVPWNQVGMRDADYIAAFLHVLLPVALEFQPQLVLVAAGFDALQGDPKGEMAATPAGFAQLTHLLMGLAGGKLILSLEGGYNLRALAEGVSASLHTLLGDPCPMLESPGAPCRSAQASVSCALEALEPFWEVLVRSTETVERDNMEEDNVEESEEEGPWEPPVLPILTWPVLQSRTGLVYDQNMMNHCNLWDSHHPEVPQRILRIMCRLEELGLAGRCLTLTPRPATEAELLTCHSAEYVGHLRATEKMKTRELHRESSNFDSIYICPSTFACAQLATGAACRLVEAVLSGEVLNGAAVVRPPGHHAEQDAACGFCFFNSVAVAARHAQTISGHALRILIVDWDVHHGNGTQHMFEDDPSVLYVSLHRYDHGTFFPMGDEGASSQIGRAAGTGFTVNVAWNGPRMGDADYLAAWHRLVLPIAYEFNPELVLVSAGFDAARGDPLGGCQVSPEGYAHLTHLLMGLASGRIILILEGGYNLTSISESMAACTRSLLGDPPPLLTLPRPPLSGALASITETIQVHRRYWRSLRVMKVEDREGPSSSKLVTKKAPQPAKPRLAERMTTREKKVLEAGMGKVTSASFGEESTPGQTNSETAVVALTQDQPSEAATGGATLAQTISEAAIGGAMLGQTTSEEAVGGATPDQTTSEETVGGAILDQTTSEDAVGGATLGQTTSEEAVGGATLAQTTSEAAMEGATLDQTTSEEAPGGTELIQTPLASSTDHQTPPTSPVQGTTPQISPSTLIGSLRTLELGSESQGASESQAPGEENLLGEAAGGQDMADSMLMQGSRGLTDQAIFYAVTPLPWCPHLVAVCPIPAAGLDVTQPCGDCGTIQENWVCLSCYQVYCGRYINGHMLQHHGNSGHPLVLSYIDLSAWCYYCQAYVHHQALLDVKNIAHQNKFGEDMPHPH
Description: HDAC enzyme activity inhibition (in vitro), HDAC6 assay. It counts as biochemical. The following applies: samples at 0.1, 1, 10, 100 and 1000 nM; 37° C. 60 minutes; fluorescence Ex 390, Em 460; read-out: HDAC6 IC50. An outline of the steps:
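Fluorescence (Ex 390, Em 460) read after a 37° C, 60 min enzyme reaction and a further 30 min developer step at 37° C. Uses recombinant human HDAC6; HDAC1 arm dosed at 100, 1000, 10000 nM.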

In a further assay the target is T2, HDAC1 (Homo sapiens, UniProt Q13547).
T2 construct: purchased Enzolifesciences BML-AK511
T2 sequence (Q13547 whole entry): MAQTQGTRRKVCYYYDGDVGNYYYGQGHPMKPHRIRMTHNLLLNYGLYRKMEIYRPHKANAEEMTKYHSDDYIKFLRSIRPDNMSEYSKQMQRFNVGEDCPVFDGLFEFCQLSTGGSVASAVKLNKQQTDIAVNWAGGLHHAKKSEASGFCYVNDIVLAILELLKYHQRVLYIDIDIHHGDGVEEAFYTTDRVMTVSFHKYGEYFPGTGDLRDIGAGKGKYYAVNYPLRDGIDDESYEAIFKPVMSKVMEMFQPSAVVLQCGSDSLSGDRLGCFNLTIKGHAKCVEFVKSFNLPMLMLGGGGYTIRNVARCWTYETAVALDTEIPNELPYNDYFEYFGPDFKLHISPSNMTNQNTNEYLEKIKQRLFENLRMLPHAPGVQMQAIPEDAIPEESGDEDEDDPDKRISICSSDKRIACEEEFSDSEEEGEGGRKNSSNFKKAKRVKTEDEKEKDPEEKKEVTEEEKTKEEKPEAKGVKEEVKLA
The assay can be described thus: HDAC enzyme activity inhibition (in vitro), HDAC1 Fluorimetric Drug Discovery Assay Kit. Format: biochemical. Particulars: samples at 100, 1000 and 10000 nM; 37° C. 60 minutes; fluorescence Ex 390, Em 460; read-out: HDAC1 IC50. An outline of the steps: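 Each sample reacted with enzyme for 60 min at 37° C before a 30-min developer step at the same temperature. HDAC1 doses spanned 100 to 10000 nM. Fluorescent signal was read at Ex 390/Em 460.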

Some results are limits rather than exact numbers.

On to `CN1CCC(c2ccc3c(c2)sc(=O)n3Cc2ccc(-c3nnc(C(F)F)o3)cn2)CC1` [Compound 331, 3-((5-(5-(difluoromethyl)-1,3,4-oxadiazole-2-yl)pyridine-2-yl)methyl)-6-(1-methylpiperidine-4-yl)benzo[d]thiazole-2(3H)-one], for which the values for the half-inhibitory concentration (IC50) at HDAC6 human recombinant and on HDAC1 were 61 nM and greater than 10000 nM, respectively.
The like results for `O=c1oc2cc(-c3ccc(CN4CCOCC4)nc3)c(F)cc2n1Cc1ccc(-c2nnc(C(F)F)o2)cn1` [Compound 332, 3-((5-(5-(difluoromethyl)-1,3,4-oxadiazole-2-yl)pyridine-2-yl)methyl)-5-fluoro-6-(6-(morpholinomethyl)pyridine-3-yl)benzo[d]oxazole-2(3H)-one] were, in that order, 43 nM and greater than 10000 nM.
On to `O=c1sc2cc(-c3ccc(CN4CCOCC4)nc3)ccc2n1Cc1ccc(-c2nnc(C(F)F)o2)cn1` [Compound 333, 3-((5-(5-(difluoromethyl)-1,3,4-oxadiazole-2-yl)pyridine-2-yl)methyl)-6-(6-(morpholinomethyl)pyridine-3-yl)benzo[d]thiazole-2(3H)-one], for which the values for the half-inhibitory concentration (IC50) on HDAC6 human recombinant and at HDAC1 were 38 nM and greater than 10000 nM, respectively.
With `CN1CCC(c2cc3oc(=O)n(Cc4ccc(-c5nnc(C(F)F)o5)cn4)c3cc2F)CC1` [Compound 334, 3-((5-(5-(difluoromethyl)-1,3,4-oxadiazole-2-yl)pyridine-2-yl)methyl)-5-fluoro-6-(1-methylpiperidine-4-yl)benzo[d]oxazole-2(3H)-one], the results for the IC50 on HDAC6 human recombinant and on HDAC1 were 64 nM and greater than 10000 nM, respectively.
As to `CC(C)N1CCC(c2cc3oc(=O)n(Cc4ccc(-c5nnc(C(F)F)o5)cn4)c3cc2F)CC1` [Compound 335, 3-((5-(5-(difluoromethyl)-1,3,4-oxadiazole-2-yl)pyridine-2-yl)methyl)-5-fluoro-6-(1-isopropylpiperidine-4-yl)benzo[d]oxazole-2(3H)-one], the values for the half-inhibitory concentration (IC50) on HDAC6 human recombinant and on HDAC1 were 75 nM and greater than 10000 nM, respectively.
The corresponding values for `O=c1oc2cc(C3CCN(C4COC4)CC3)c(F)cc2n1Cc1ccc(-c2nnc(C(F)F)o2)cn1` [Compound 336, 3-((5-(5-(difluoromethyl)-1,3,4-oxadiazole-2-yl)pyridine-2-yl)methyl)-5-fluoro-6-(1-(oxetan-3-yl)piperidine-4-yl)benzo[d]oxazole-2(3H)-one] are 44 nM and greater than 10000 nM.
The corresponding values for `CC(C)(C)OC(=O)N1CCN(c2ncc(-c3cc4oc(=O)n(Cc5ccc(-c6nnc(C(F)F)o6)cn5)c4cc3F)cn2)CC1` [Compound 337, tert-butyl 4-(5-(3-((5-(5-(difluoromethyl)-1,3,4-oxadiazole-2-yl)pyridine-2-yl)methyl)-5-fluoro-2-oxo-2,3-dihydrobenzo[d]oxazole-6-yl)pyrimidine-2-yl)piperazine-1-carboxylate] are 672 nM and greater than 10000 nM.
The corresponding values for `CN1CCN(c2ncc(-c3cc4oc(=O)n(Cc5ccc(-c6nnc(C(F)F)o6)cn5)c4cc3F)cn2)CC1` [Compound 338, 3-((5-(5-(difluoromethyl)-1,3,4-oxadiazole-2-yl)pyridine-2-yl)methyl)-5-fluoro-6-(2-(4-methylpiperazine-1-yl)pyrimidine-5-yl)benzo[d]oxazole-2(3H)-one] are 47 nM and greater than 10000 nM.
Take `O=c1oc2cc(-c3cnc(N4CCN(C5COC5)CC4)nc3)c(F)cc2n1Cc1ccc(-c2nnc(C(F)F)o2)cn1` [Compound 339, 3-((5-(5-(difluoromethyl)-1,3,4-oxadiazole-2-yl)pyridine-2-yl)methyl)-5-fluoro-6-(2-(4-(oxetan-3-yl)piperazine-1-yl)pyrimidine-5-yl)benzo[d]oxazole-2(3H)-one]: the half-maximal inhibitory concentration (IC50) (as a rule, the concentration that gives 50% inhibition) at HDAC6 human recombinant was 52 nM; on HDAC1, greater than 10000 nM.
The corresponding values for `Cn1c(=O)n(Cc2ccc(-c3nnc(C(F)F)o3)cc2F)c2cc(F)c(-c3ccc(CN4CCOCC4)nc3)cc21` [Compound 340, 1-(4-(5-(difluoromethyl)-1,3,4-oxadiazole-2-yl)-2-fluorobenzyl)-6-fluoro-3-methyl-5-(6-(morpholinomethyl)pyridine-3-yl)-1,3-dihydro-2H-benzo[d]imidazole-2-one] are 65 nM and greater than 10000 nM.
The corresponding values for `Cn1c(=O)n(Cc2ccc(-c3nnc(C(F)F)o3)cn2)c2cc(F)c(-c3cnc(N4CCN(C(=O)OC(C)(C)C)CC4)nc3)cc21` [Compound 341, tert-butyl 4-(5-(1-((5-(5-(difluoromethyl)-1,3,4-oxadiazole-2-yl)pyridine-2-yl)methyl)-6-fluoro-3-methyl-2-oxo-2,3-dihydro-1H-benzo[d]imidazole-5-yl)pyrimidine-2-yl)piperazine-1-carboxylate] are 208 nM and greater than 10000 nM.
The like results for `CN1CCN(c2ncc(-c3cc4c(cc3F)n(Cc3ccc(-c5nnc(C(F)F)o5)cn3)c(=O)n4C)cn2)CC1` [Compound 342, 1-((5-(5-(difluoromethyl)-1,3,4-oxadiazole-2-yl)pyridine-2-yl)methyl)-6-fluoro-3-methy 1-5-(2-(4-methylpiperazine-1-yl)pyrimidine-5-yl)-1,3-dihydro-2H-benzo[d]imidazole-2-one] were, in that order, 16 nM and greater than 10000 nM.
As to `Cn1c(=O)n(Cc2ccc(-c3nnc(C(F)F)o3)cn2)c2cc(F)c(-c3cnc(N4CCN(C5COC5)CC4)nc3)cc21` [Compound 343, 1-((5-(5-(difluoromethyl)-1,3,4-oxadiazole-2-yl)pyridine-2-yl)methyl)-6-fluoro-3-methy 1-5-(2-(4-(oxetan-3-yl)piperazine-1-yl)pyrimidine-5-yl)-1,3-dihydro-2H-benzo[d]imidazole-2-one], the IC50 was 19 nM on HDAC6 human recombinant and greater than 10000 nM on HDAC1.
The like results for `CC(C)(C)OC(=O)N1CCN(c2ccc(-c3cc4oc(=O)n(Cc5ccc(-c6nnc(C(F)F)o6)cn5)c4cc3F)cn2)CC1` [Compound 344, tert-butyl 4-(5-(3-((5-(5-(difluoromethyl)-1,3,4-oxadiazole-2-yl)pyridine-2-yl)methyl)-5-fluoro-2-oxo-2,3-dihydrobenzo[d]oxazole-6-yl)pyridine-2-yl)piperazine-1-carboxylate] were, in that order, 671 nM and greater than 10000 nM.
The like results for `O=c1oc2cc(-c3ccc(N4CCNCC4)nc3)c(F)cc2n1Cc1ccc(-c2nnc(C(F)F)o2)cn1` [Compound 345, 3-((5-(5-(difluoromethyl)-1,3,4-oxadiazole-2-yl)pyridine-2-yl)methyl)-5-fluoro-6-(6-(piperazine-1-yl)pyridine-3-yl)benzo[d]oxazole-2(3H)-one] were, in that order, 22 nM and greater than 10000 nM.
The like results for `CN1CCN(c2ccc(-c3cc4oc(=O)n(Cc5ccc(-c6nnc(C(F)F)o6)cn5)c4cc3F)cn2)CC1` [Compound 346, 3-((5-(5-(difluoromethyl)-1,3,4-oxadiazole-2-yl)pyridine-2-yl)methyl)-5-fluoro-6-(6-(4-methylpiperazine-1-yl)pyridine-3-yl)benzo[d]oxazole-2(3H)-one] were, in that order, 47 nM and greater than 10000 nM.
As to `CCN1CCN(c2ccc(-c3cc4oc(=O)n(Cc5ccc(-c6nnc(C(F)F)o6)cn5)c4cc3F)cn2)CC1` [Compound 347, 3-((5-(5-(difluoromethyl)-1,3,4-oxadiazole-2-yl)pyridine-2-yl)methyl)-6-(6-(4-ethylpiperazine-1-yl)pyridine-3-yl)-5-fluorobenzo[d]oxazole-2(3H)-one], the figures for the concentration for half-maximal inhibition (IC50) on HDAC6 human recombinant and at HDAC1 were 62 nM and greater than 10000 nM, respectively.
